“And” between values parts separate entries of the source, which are not always exact repeats. Identical values can stand only once. Inconclusive results and toxic doses are left out. The calls were made as follows: active = survival T/C of 150% or more; inactive = T/C below 125% in these data.
System: P388 leukemia ip, CD2F1 mice, survival T/C
Assay: NCI In Vivo Anticancer Drug Screen. Data for tumor model P388 Leukemia (intraperitoneal) in CD2F1 (CDF1) mice
Conditions: endpoint: median survival time, higher = longer survival
Method in brief: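 Mice carrying the transplanted tumor received test compound or vehicle. Survival was recorded in each group, and the value is the treated-group measurement divided by that of the vehicle-treated control group.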

[1] = dose: 50.0 mg/kg/injection, schedule: Q01DX005 (ip), vehicle: saline with Tween-80
[2] = dose: 100.0 mg/kg/injection, schedule: Q01DX005 (ip), vehicle: saline with Tween-80
[3] = dose: 200.0 mg/kg/injection, schedule: Q01DX005 (ip), vehicle: saline with Tween-80
[4] = dose: 50.0 mg/kg/injection, schedule: Q01DX005 (ip), vehicle: Klucel (hydroxypropylcellulose) (HPC)
[5] = dose: 100.0 mg/kg/injection, schedule: Q01DX005 (ip), vehicle: Klucel (hydroxypropylcellulose) (HPC)
[6] = dose: 200.0 mg/kg/injection, schedule: Q01DX005 (ip), vehicle: Klucel (hydroxypropylcellulose) (HPC)
[7] = dose: 50.0 mg/kg/injection, schedule: Q01DX009 (ip), vehicle: Klucel (hydroxypropylcellulose) (HPC)
[8] = dose: 100.0 mg/kg/injection, schedule: Q01DX009 (ip), vehicle: Klucel (hydroxypropylcellulose) (HPC)
[9] = dose: 200.0 mg/kg/injection, schedule: Q01DX009 (ip), vehicle: Klucel (hydroxypropylcellulose) (HPC)
[10] = dose: 100.0 mg/kg/injection, schedule: Q04DX003 (ip), vehicle: Klucel (hydroxypropylcellulose) (HPC)
[11] = dose: 60.0 mg/kg/injection, schedule: Q01DX005 (ip), vehicle: saline with Tween-80
[12] = dose: 120.0 mg/kg/injection, schedule: Q01DX005 (ip), vehicle: saline with Tween-80
[13] = dose: 240.0 mg/kg/injection, schedule: Q01DX005 (ip), vehicle: saline with Tween-80

Measured: T/C

CC1(C)SC=C2C1=CSC2(C)C
inactive: [1] 101 % of control | [2] 96 % of control | [3] 95 % of control

CCc1c2c(cc3c1[nH]c1ccccc13)C(=O)OC2=O
inactive: [4] 95 % of control | [5] 86 % of control | [6] 98 % of control

O=C1c2ccccc2C(=O)C23OC12C1C=CC3CC1 (configuration not stated)
inactive: dose: 50.0 mg/kg/injection, schedule: Q01DX001 (ip), vehicle: Klucel (hydroxypropylcellulose) (HPC) 94 % of control | dose: 100.0 mg/kg/injection, schedule: Q01DX001 (ip), vehicle: Klucel (hydroxypropylcellulose) (HPC) 91 % of control | dose: 200.0 mg/kg/injection, schedule: Q01DX001 (ip), vehicle: Klucel (hydroxypropylcellulose) (HPC) 93 % of control

COc1cc2c(oc(=O)c3cc(C)cc(OC)c32)c2c(C3OC(C)C(O)C(C)(O)C3O)ccc(O)c12 (configuration not stated)
inactive: dose: 1.56 mg/kg/injection, schedule: Q01DX005 (ip), vehicle: DMSO 101 % of control | dose: 3.12 mg/kg/injection, schedule: Q01DX005 (ip), vehicle: DMSO 105 % of control and 109 % of control | dose: 6.25 mg/kg/injection, schedule: Q01DX005 (ip), vehicle: DMSO 114 % of control | dose: 12.5 mg/kg/injection, schedule: Q01DX005 (ip), vehicle: DMSO 123 % of control

CCCCN(CCCC)CN(CCCC)CCCC
inactive: dose: 12.5 mg/kg/injection, schedule: Q01DX005 (ip), vehicle: saline with Tween-80 102 % of control | dose: 25.0 mg/kg/injection, schedule: Q01DX005 (ip), vehicle: saline with Tween-80 112 % of control | [1] 104 % of control and 114 % of control

Cc1cn(O)c(=N)c(C(N)=O)n1
inactive: dose: 37.5 mg/kg/injection, schedule: Q01DX009 (ip), vehicle: saline with Tween-80 90 % of control | dose: 75.0 mg/kg/injection, schedule: Q01DX009 (ip), vehicle: saline with Tween-80 100 % of control | dose: 150.0 mg/kg/injection, schedule: Q01DX009 (ip), vehicle: saline with Tween-80 107 % of control

COc1nc(Nc2ccccc2OC)nc(OC)n1
inactive: [7] 101 % of control | [8] 99 % of control | [9] 100 % of control

N#Cc1ccc(NC(=O)Nc2nncs2)cc1
inactive: dose: 12.5 mg/kg/injection, schedule: Q01DX009 (ip), vehicle: distilled water + Tween-80 115 % of control and 116 % of control | dose: 25.0 mg/kg/injection, schedule: Q01DX009 (ip), vehicle: distilled water + Tween-80 122 % of control | dose: 200.0 mg/kg/injection, schedule: Q01DX009 (ip), vehicle: distilled water + Tween-80 104 % of control

COc1cc2c(c3c1c(=O)c1cc(F)ccc1n3C)C=CC(C)(C)O2
inactive: [4] 103 % of control | [5] 100 % of control and 104 % of control | [6] 105 % of control and 98 % of control

C=C1C(=O)O[C@H]2/C=C(/C)C3=CC(=O)[C@@](C)(C[C@@H](OC(=O)/C(C)=C\C)C12)O3 (some centres not stated)
inactive: dose: 1.56 mg/kg/injection, schedule: Q01DX005 (ip), vehicle: Klucel (hydroxypropylcellulose) (HPC) 102 % of control | dose: 3.12 mg/kg/injection, schedule: Q01DX005 (ip), vehicle: Klucel (hydroxypropylcellulose) (HPC) 105 % of control | dose: 6.25 mg/kg/injection, schedule: Q01DX005 (ip), vehicle: Klucel (hydroxypropylcellulose) (HPC) 105 % of control | dose: 12.5 mg/kg/injection, schedule: Q01DX005 (ip), vehicle: Klucel (hydroxypropylcellulose) (HPC) 89 % of control and 96 % of control

O=[N+]([O-])c1ccccc1-c1ccc2c(O)c(Cl)c(Cl)c(O)c2n1
inactive: [10] 104 % of control

O=C(Nc1ccc(N=C=S)cc1Cl)c1ccc2ccccc2c1O
inactive: [10] 101 % of control and 105 % of control | dose: 200.0 mg/kg/injection, schedule: Q04DX003 (ip), vehicle: Klucel (hydroxypropylcellulose) (HPC) 100 % of control and 106 % of control | dose: 400.0 mg/kg/injection, schedule: Q04DX003 (ip), vehicle: Klucel (hydroxypropylcellulose) (HPC) 110 % of control and 123 % of control

CCN(CC)CCCC(C)Nc1cc(/C=C/c2ccc(Cl)cc2)nc2cc(N(C)C)ccc12 (configuration not stated)
inactive: dose: 3.12 mg/kg/injection, schedule: Q01DX009 (ip), vehicle: Klucel (hydroxypropylcellulose) (HPC) 107 % of control | dose: 6.25 mg/kg/injection, schedule: Q01DX009 (ip), vehicle: Klucel (hydroxypropylcellulose) (HPC) 110 % of control | dose: 12.5 mg/kg/injection, schedule: Q01DX009 (ip), vehicle: Klucel (hydroxypropylcellulose) (HPC) 98 % of control and 102 % of control

C[C@@H]1C[C@H]2C(=CC1=O)CC[C@@H]1[C@@H]2CC[C@]2(C)[C@@H](O)CC[C@@H]12
inactive: dose: 100.0 mg/kg/injection, schedule: Q04DX003 (ip), vehicle: saline with Tween-80 100 % of control | dose: 200.0 mg/kg/injection, schedule: Q04DX003 (ip), vehicle: saline with Tween-80 109 % of control | dose: 400.0 mg/kg/injection, schedule: Q04DX003 (ip), vehicle: saline with Tween-80 100 % of control

CCOc1ccc(/C=C/S(=O)(=O)/C=C\c2ccccc2)c(OC)c1
inactive: [1] 98 % of control | [2] 92 % of control | [3] 87 % of control

NC(=O)c1cc(C(Cl)Cl)ccn1
inactive: dose: 60.0 mg/kg/injection, schedule: Q01DX005 (ip), vehicle: Klucel (hydroxypropylcellulose) (HPC) 100 % of control | dose: 120.0 mg/kg/injection, schedule: Q01DX005 (ip), vehicle: Klucel (hydroxypropylcellulose) (HPC) 99 % of control | dose: 240.0 mg/kg/injection, schedule: Q01DX005 (ip), vehicle: Klucel (hydroxypropylcellulose) (HPC) 93 % of control

[N-]=[N+]=N[Si](c1ccccc1)(c1ccccc1)c1ccccc1
inactive: [7] 103 % of control | [8] 101 % of control | [9] 103 % of control

COc1ccc2nc3cc(Cl)ccc3c(NCC3CCCN4CCCCC34)c2c1 (configuration not stated)
inactive: dose: 12.5 mg/kg/injection, schedule: Q01DX005 (ip), vehicle: distilled water + Tween-80 98 % of control | dose: 25.0 mg/kg/injection, schedule: Q01DX005 (ip), vehicle: distilled water + Tween-80 103 % of control | dose: 50.0 mg/kg/injection, schedule: Q01DX005 (ip), vehicle: distilled water + Tween-80 104 % of control | dose: 100.0 mg/kg/injection, schedule: Q01DX005 (ip), vehicle: distilled water + Tween-80 113 % of control

CC1OC(Oc2ccc3c(=O)c(-c4ccc(O)cc4)coc3c2)C(O)C(O)C1O (configuration not stated)
inactive: [11] 103 % of control | [12] 103 % of control | [13] 103 % of control

O=C1c2ccccc2C(=O)N1OCc1ccccc1[N+](=O)[O-]
inactive: [4] 102 % of control | [5] 101 % of control | [6] 90 % of control

CC(=O)OC1(OC(C)=O)C=C2OCOC2=CC1=O
inactive: dose: 8.75 mg/kg/injection, schedule: Q01DX005 (ip), vehicle: Klucel (hydroxypropylcellulose) (HPC) 91 % of control | dose: 17.5 mg/kg/injection, schedule: Q01DX005 (ip), vehicle: Klucel (hydroxypropylcellulose) (HPC) 103 % of control

C[N+](C)(C)N=P(O)(N[N+](C)(C)C)c1ccccc1 (configuration not stated)
inactive: dose: 60.0 mg/kg/injection, schedule: Q01DX005 (ip), vehicle: saline 104 % of control | dose: 120.0 mg/kg/injection, schedule: Q01DX005 (ip), vehicle: saline 104 % of control | dose: 240.0 mg/kg/injection, schedule: Q01DX005 (ip), vehicle: saline 103 % of control

O=C(NCCCl)Nc1[nH]c(=O)ncc1Br
inactive: [11] 104 % of control | [12] 102 % of control | [13] 112 % of control

CON(C)c1nc(N(C)C)nc(N(C)C)n1
inactive: dose: 50.0 mg/kg/injection, schedule: Q01DX009 (ip), vehicle: saline 91 % of control | dose: 100.0 mg/kg/injection, schedule: Q01DX009 (ip), vehicle: saline 98 % of control | dose: 200.0 mg/kg/injection, schedule: Q01DX009 (ip), vehicle: saline 96 % of control
